Patent US20250236614A1, “BICYCLIC TETRAHYDROAZEPINE DERIVATIVES” (Hoffmann-La Roche Inc., priority 2022, published 2025)

Assays:
[1] = molecular target: T1, hDGKalpha(1-735)-N-His (DGKA) (Homo sapiens, UniProt P23743); test: In vitro DGK inhibition assay (ADP-Glo, in house), DGK alpha; format: biochemical; conditions: isomer A; 4 nM DGK α, 25 μM ATP, 125 μM DLG in liposomes, 1 hour reaction; read-out: DGKalpha ADP Glo assay IC50
T1 construct: hDGKalpha(1-735)-N-His; His (N)
Protocol: DGK α and ζ kinase use ATP to phosphorylate the substrate 1,2-dilauroyl-sn-glycerol (DLG, incorporated in the liposomes). ATP is converted to ADP as a result of this enzymatic reaction.
After the kinase reaction, an ATP-depletion reagent is added to terminate the kinase reaction and deplete any remaining ATP, leaving only ADP. Second, a detection reagent is added to simultaneously convert ADP to ATP and allow the newly synthesized ATP to be converted to light using a coupled luciferase/luciferin reaction.
Full length DGKA and Z were expressed in Sf21 insect cells by infecting the cells with the baculovirus stock at MOI of 2. Purification of both enzymes was performed as previously described by Takahashi et al., PeerJ, 2018 (Takahashi, D.; Sakane, F. Expression and purification of human diacylglycerolkinase alpha from baculovirus-infected insect cells for structural studies. PeerJ2018, 6, No. e5449).
A concentrated liposome solution was prepared in assay buffer without DTT and BSA: 2 mM of DLG in 21 mM of total liposome (2 mM DLG/8 mM PS/11 mM PC). The reaction mixtures contain the assay buffer with a final DLG concentration of 125 μM ATP concentrations of 25 μM (for DGKA assay) or 50 μM (for DGKZ assay). The reactions were started by addition of DGK α and ζ kinases at 4 nM and 2 nM final concentrations, respectively. After 1 hour reaction, the amount of ADP formed was detected with the ADP-Glo kinase assay (Promega) according to the manufacturer instructions. Compounds were added in 11I-points dose response, starting at 10 mM, 1:3 dilutions, with a final DMSO concentration of […]. The multidrop combi was used as a liquid handler and luminescence was read with 0.5 s by the envision reader (PE).

[2] = system: primary human T-cells; test: T-cell proliferation assay (CellTiter-Glo); format: cell-based; conditions: Homo sapiens, T-cell, 120 h, isomer A; for EC50: CD3 antibody-stimulated T-cells, CellTiter-Glo after 5 days, read-out: Tcell Proliferation CD3 EC50; for Emax: CD3 condition, 5 days, 20 μM reference compound A1 = 100%, DMSO neutral control, read-out: Emax proliferation (% activation)
Protocol: Expanded primary human T-cells are thawed and cultured in RPMI 1640 (Gibco, #61870-010)+5% human serum (HS, Sigma, #H3667)+1 mM Sodium Pyruvate (Gibco, #11360-039)+50 μM 2-mercaptoethanol (Gibco, #31350-010) and 1× Pen-Strep (Life Technologies, #15140122) medium at density of 2 Mio/ml for 3 hours in 5% CO2, 37° C. and 95% humidity. For coating of plates, PBS++ only or PBS++ with CD3 antibody (concentration depending on donor and determined by CD3 titrations) is added 100 μl/well to Poly-D Lysine coated 96-well plates. Plates are sealed and incubated at room temperature for 3 hours on a table-top rocking platform. After incubation, plates are washed once with PBS−− and filled with 40 μl/well culture medium only. Compounds are then added (see next section) to medium only plates. After 3 hours of culturing the T-cells, cells are filtered through a cell strainer (Miltenyi Biotech, #130-041-407), counted again and concentration is adjusted to 1.25 Mio/ml.
Cells are then seeded 80 μl/well to the 40 μl/well including dispensed compounds according to plate layout. By adding cells, compounds are further diluted 1:3, and resulting in 100k cells/120 μl/well. After 48 hours 40 μl of supernatant is collected carefully from the top while not disturbing the cells. Cells are assessed for proliferation 5 days later by measuring […] using CellTiterGlo (Promega).
Compounds were added in a 5 or 6 pt dose response with the Tecan D300e Digital Dispenser, all conditions 3 times more concentrated than the end-concentration, since cells are added afterwards (80 μl cells to 40 μl prepared medium with treatment). The DR was starting at 20 μM or 10 μM final top concentration and a dilution factor of 3.333. The positive control was the reference compound A1 that was added in a dose response as well, additionally to 3 wells of only 20 μM representing the positive stimulator control. All wells were normalized with DMSO to a final concentration of 0.6% (0.2% end-concentration).
After 5 days, for detection of ATP which is directly proportional to the number of cells present per well, the CellTiter-Glo® 2.0 Reagent is used. After visual control for toxicity or precipitations of the tested compounds, the plates are equilibrated to room temperature for 45 minutes. CellTiter-Glo® 2.0 Reagent is equilibrated to room temperature as well. After equilibration, an equal amount of CellTiter-Glo reagent is added to the cells (80 μl/well) with an electronic multichannel pipette. Plates are placed on a rocking platform for 15 minutes at room temperature. After incubation, the bottom of the plates is sealed with backing tape. Luminescence is measured with PHERAstar FSX (interval time 0.5 sec, gain 3000, focal height 15 mm) and exported as CSV file for analysis in Genedata screener.
CD3 and PBS plates were analysed separately in Genedata Screener using Roche Normalization PCT_POS_CTRL with DMSO set as Neutral Control and 20 μM of the reference compound A1 set as Stimulator Control/100%.
For CD3 conditions EC50 and Emax of the fitted sigmoidal curve were reported. If no curve could be fitted, the EC50 was reported as blank field and the Emax was based on individual data points. […] Compounds which activate unstimulated cells (see IL2 measurements) or compounds which negatively affected viability were flagged.

T1 sequence (P23743 whole entry): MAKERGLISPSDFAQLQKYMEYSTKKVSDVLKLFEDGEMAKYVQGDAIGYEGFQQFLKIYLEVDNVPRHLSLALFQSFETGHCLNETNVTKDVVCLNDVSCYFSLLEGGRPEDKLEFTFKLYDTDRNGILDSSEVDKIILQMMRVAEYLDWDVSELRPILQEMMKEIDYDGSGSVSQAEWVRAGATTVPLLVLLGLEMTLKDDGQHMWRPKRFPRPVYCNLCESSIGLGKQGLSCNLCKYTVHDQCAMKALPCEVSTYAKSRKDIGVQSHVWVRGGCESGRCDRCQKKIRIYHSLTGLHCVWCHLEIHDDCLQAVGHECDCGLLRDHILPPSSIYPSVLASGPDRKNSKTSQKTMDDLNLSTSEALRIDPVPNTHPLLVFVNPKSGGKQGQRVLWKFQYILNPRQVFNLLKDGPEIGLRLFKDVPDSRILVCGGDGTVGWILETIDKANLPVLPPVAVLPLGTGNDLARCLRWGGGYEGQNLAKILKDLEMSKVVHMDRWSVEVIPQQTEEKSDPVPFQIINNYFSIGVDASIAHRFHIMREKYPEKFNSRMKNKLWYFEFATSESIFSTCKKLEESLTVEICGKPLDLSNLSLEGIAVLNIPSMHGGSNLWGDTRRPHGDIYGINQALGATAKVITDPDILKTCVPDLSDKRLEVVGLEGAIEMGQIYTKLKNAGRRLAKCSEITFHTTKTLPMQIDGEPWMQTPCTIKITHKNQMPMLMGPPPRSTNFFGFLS

Compound	IC50 [1] [nM]	EC50 [2] [nM]	Emax [2] [%]
N[C@@H]1CC(F)(F)c2cc(F)c(-c3nnc(N4CCC(F)(F)CC4)o3)cc2N(Cc2ccc(-c3noc(C(F)(F)F)n3)cc2)C1=O (single isomer, unassigned) [Example 15]	39600	127	108
N[C@@H]1CC(F)(F)c2cc(F)c(-c3nnc(N4CCOC5(CC5)C4)o3)cc2N(Cc2ccc(-c3noc(C(F)(F)F)n3)cc2)C1=O (single isomer, unassigned) [Example 17]	> 62500	558	115
CC(C)(C#N)c1nnc(-c2cc3c(cc2F)C(F)(F)C[C@@H](N)C(=O)N3Cc2ccc(-c3ncc(C(F)(F)F)cc3F)cc2)o1 (single isomer, unassigned) [Example 19]	41600	984	85
CC(C)(c1nnc(-c2cc3c(cc2F)C(F)(F)C[C@@H](N)C(=O)N3Cc2ccc(-c3ccc(C(F)(F)F)cc3)cc2)o1)S(C)(=O)=O (single isomer, unassigned) [Example 32]	51300	2340	81
COCCN1CC(c2nnc(-c3cc4c(cc3F)C(F)(F)C[C@@H](N)C(=O)N4Cc3ccc(-c4ccc(C(F)(F)F)cn4)cc3)o2)CC(F)(F)C1 (single isomer, unassigned) [Example 34]	> 60000	1220	75
COC(=O)N1CC2CC(c3nnc(-c4cc5c(cc4F)C(F)(F)C[C@@H](N)C(=O)N5Cc4ccc(-c5ccc(C(F)(F)F)cn5)cc4)o3)(C2)C1 (single isomer, unassigned) [Example 35]	> 19000	124	128
COC(=O)N1CC2CC(c3nnc(-c4cc5c(cc4F)C(F)(F)C[C@@H](N)C(=O)N5Cc4ccc(Cl)cc4)o3)(C2)C1 (single isomer, unassigned) [Example 36]	55200	168	82
COc1ccc(-c2ccc(CN3C(=O)[C@H](N)CC(F)(F)c4cc(F)c(-c5nnc(C(C)(C)C#N)o5)cc43)cc2)nc1 (single isomer, unassigned) [Example 38]	≥ 60000	1020	105
COc1ccc(-c2ccc(CN3C(=O)[C@H](N)CC(F)(F)c4cc(F)c(-c5nnc(C(C)(C)S(C)(=O)=O)o5)cc43)cc2)nc1 (single isomer, unassigned) [Example 39]	44400	1420	98
COC(=O)N1CC2CC(c3nnc(-c4cc5c(cc4F)C(F)(F)CC(N)C(=O)N5Cc4ccc(-c5noc(C(F)(F)F)n5)cc4)o3)(C2)C1 (single isomer, unassigned) [Example 42]	4320	1260	117

Now from value to molecule, other results behind:

IC50 [1] [nM]	Compound	EC50 [2] [nM]	Emax [2] [%]
13200	CC(C)(c1nnc(-c2cc3c(cc2F)C(F)(F)C[C@@H](N)C(=O)N3Cc2ccc(-c3noc(C(F)(F)F)n3)cc2)o1)S(C)(=O)=O (single isomer, unassigned) [Example 16]	296	241
7180	CC(C)(C#N)c1nnc(-c2cc3c(cc2F)C(F)(F)C[C@@H](N)C(=O)N3Cc2ccc(-n3nnc(C(F)(F)F)n3)cc2)o1 (single isomer, unassigned) [Example 20]	205	118
10900	N[C@@H]1CC(F)(F)c2cc(F)c(-c3nnc(N4CCCC4)o3)cc2N(Cc2ccc(-n3cnc(C(F)(F)F)n3)cc2)C1=O (single isomer, unassigned) [Example 21]	> 10000	43
10600	N[C@@H]1CC(F)(F)c2cc(F)c(-c3nnc(N4CCC(F)(F)C4)o3)cc2N(Cc2ccc(-n3cnc(C(F)(F)F)n3)cc2)C1=O (single isomer, unassigned) [Example 22]	2110	62
14100	CC(C)(c1nnc(-c2cc3c(cc2F)C(F)(F)C[C@@H](N)C(=O)N3Cc2ccc(-n3cnc(C(F)(F)F)n3)cc2)o1)S(C)(=O)=O (single isomer, unassigned) [Example 23]	> 10000	98
1860	CC(C)(C#N)c1nnc(-c2cc3c(cc2F)C(F)(F)C[C@@H](N)C(=O)N3Cc2ccc(-c3ccc(OC(F)(F)F)cn3)cc2)o1 (single isomer, unassigned) [Example 24]	161	129
425	CC(C)(c1nnc(-c2cc3c(cc2F)C(F)(F)C[C@@H](N)C(=O)N3Cc2ccc(-c3ccc(OC(F)(F)F)cn3)cc2)o1)S(C)(=O)=O (single isomer, unassigned) [Example 26]	950	155
24600	CC(C)(C#N)c1nnc(-c2cc3c(cc2F)C(F)(F)C[C@@H](N)C(=O)N3Cc2ccc(-c3cc(C(F)(F)F)ccn3)cc2)o1 (single isomer, unassigned) [Example 27]	598	79
31700	CC(C)(C#N)c1nnc(-c2cc3c(cc2F)C(F)(F)C[C@@H](N)C(=O)N3Cc2ccc(-c3ccc(C(F)(F)F)cc3)nc2)o1 (single isomer, unassigned) [Example 28]	978	96
551	CC(C)(c1nnc(-c2cc3c(cc2F)C(F)(F)C[C@@H](N)C(=O)N3Cc2ccc(-n3cc(C(F)(F)F)cn3)cc2)o1)S(C)(=O)=O (single isomer, unassigned) [Example 29]	91.7	93
26400	CC(C)(C#N)c1nnc(-c2cc3c(cc2F)C(F)(F)C[C@@H](N)C(=O)N3Cc2ccc(-n3ccc(C(F)(F)F)n3)cc2)o1 (single isomer, unassigned) [Example 30]	589	94
11200	CC(F)(F)c1ccc(-c2ccc(CN3C(=O)[C@H](N)CC(F)(F)c4cc(F)c(-c5nnc(C(C)(C)C#N)o5)cc43)cc2)nc1 (single isomer, unassigned) [Example 37]	215	138
15300	CC(C)(C#N)c1nnc(-c2cc3c(cc2F)C(F)(F)C[C@@H](N)C(=O)N3Cc2ccc(-c3ccc(C(F)F)cn3)cc2)o1 (single isomer, unassigned) [Example 40]	655	99
24000	CC(C)(C#N)c1nnc(-c2cc3c(cc2F)C(F)(F)C[C@@H](N)C(=O)N3Cc2ccc(-c3ccc(OC(F)F)cn3)cc2)o1 (single isomer, unassigned) [Example 41]	196	113
